Results: patent publication US5281608A, “Substituted tetrahydropyrido[3',4':4,5]-pyrrolo[3,2-c]quinolines” (American Home Products Corporation, priority 1992, dated 1994)
Values after ≈ are worked out from the molar mass of the structure shown.

Legend:
[1] = test system: rat limb bones (PTH-induced bone resorption); experiment: Bone resorption assay (45Ca release from rat limb bones), PTH-induced; format: cell-based, rat (Sprague-Dawley CD); conditions: 48 h; for IC50: Rattus norvegicus, read-out: Inhibition of Bone Resorption, PTH-Induced (IC50)
Procedure: (§1) The ability of the compounds of the invention to modify the process of bone resorption is evaluated in the bone resorption assay measuring ^45 Ca release from rat limb bones.
(§2) Limb bone preparation. Timed pregnant Sprague-Dawley CD® rats (Charles River) are administered 100 μCi ^45 CaCl2 (NEN calcium -45 NEZ-013) in 100 μl of 0.9% saline, subcutaneously, on day 18 of gestation. The rats are sacrificed the following day by CO2 asphyxiation. The fetuses are removed and the right forelimbs excised and placed in a Petri dish containing ice cold explant medium consisting of modified BGJb -Fitton Jackson media (custom formulation, Gibco No. 78-0088) adjusted to pH 7.3 to which 10 mM TES is added. The modified BGJb media is obtained without salts, glucose or bicarbonate and is supplemented before use with 0.1 mM MgCl2, 1.25 mM CaCl2, 5.3 mM KCl, 0.7 mM MgSO4, 130 mM NaCl, 1.0 mM NaH2 PO4, 1 g/L glucose, 50 mg/L Na acetate and 100 U/ml penicillin G. The medium is sterilized by passage through a 0.2 μ M filter (Nalge). Under a dissecting microscope, the bones are gently cleaned of adherent tissue and the cartilaginous ends removed. Incubation and drug treatment. The midshafts are placed, individually, on 3×3 mm squares of filter paper (Gelman GN-6 metricel filters; […] pore size) which rest on stainless steel screens in wells of 24-well culture plates containing 0.5 mL of preincubation medium. The preincubation medium is brought to 37° C. prior to transfer of bones. The preincubation medium consists of the modified BGJb medium (with salts and glucose as above), pH 7.3, containing 29 mM NaHCO3. After incubation for 18-24 hours at 37° C. in 5% CO2, the bones are transferred on their screen/filter paper supports to new plates containing, in a total volume of 0.5 mL/well at 37° C., the test compound diluted in preincubation medium supplemented with 15% heat inactivated horse serum (Gibco No. 230-6050), pH 7.3, with a bone resorption stimulating agent (e.g. parathyroid hormone [PTH] or interleukin-1 [IL-1]). For compounds that require nonaqueous solvents, dilutions are made from the appropriate stock solution with medium. In these instances, basal and bone resorption stimulated controls exposed to an equivalent concentration of the vehicle are included. An additional group of bones that have been subjected to boiling for 1 hour (kill control) are used to establish background, non cell mediated, exchange of ^45 Ca. The right ulna and radius from each fetus are used. Both bones are subjected to the same treatment and each treatment group consists of bones from 4 or more fetuses. Treatments are randomly assigned using a preclinical statistics program (PS-ALLOC). After a 48 hour incubation at 37° C. in 5% CO2, the bones are removed from the medium and extracted in 0.5 mL of 0.1N HCl for 1 or more days. Duplicate 150 μL aliquots of the incubation medium and the bone extract are analyzed for ^45 Ca radioactivity in 5 mL of liquid scintillation cocktail.
(§3) The percentage of bone ^45 Ca released into the medium is determined as follows: [formula] Results are normally expressed as the ratio of the percent ^45 Ca release of the experimental group versus the appropriate vehicle control, or as an IC50 value.

[2] = test system: rabbit articular chondrocytes (IL-1-induced neutral protease release); experiment: Inhibition of IL-1-induced release of neutral protease from rabbit articular chondrocytes; format: cell-based, rabbit (Male New Zealand White); conditions: Oryctolagus cuniculus, Chondrocyte, human IL-1 stimulated, 24 h
Procedure: The ability of the compounds of the invention to inhibit interleukin 1 is measured by the ability of the test compounds to inhibit the IL-1-induced release of neutral protease from rabbit articular chondrocytes.
Male New Zealand White rabbits are anesthetized with 50 mg/kg of ketamine (i.m.) and killed by an intracardiac injection of 3 mls. of Nembutal. The knee joints of both legs are resected and the articular surfaces are exposed. Cartilage slices are obtained using a scalpel and are placed in a tissue culture dish (100 mm diameter) containing 10 mls of Hank's balanced salt solution (HBSS). The chondrocytes within the cartilage slices are then liberated by a series of enzyme digestions. The slices are incubated for 10 minutes at 37° C. in 0.05% hyaluronidase (Sigma H-3884), rinsed with HBSS and incubated with 0.2% trypsin (Sigma T-2395) for 10 minutes at 37° C. The slices are rinsed again and incubated for 10 minutes at 37° C. with 1.2% collagenase (Sigma C-5138). The slices are then rinsed again with HBSS and resuspended in 10 ml of Ham's F-12 medium containing 10% fetal bovine calf serum (FCS) and 0.2 % collagenase and incubated overnight at 37° C. in a 5% CO2 incubator. The next day, the medium containing the digested cartilage fragments and liberated chondrocytes is transferred to a 15 ml centrifuge tube and the cells are collected by centrifugation and washed twice and resuspended in Ham's F-12 medium. The cells are then plated into 24-well tissue culture plates (2×10^5 cells/well) and incubated at 37° C. until confluent (usually 4-6 days).
The confluent chondrocytes are rinsed twice with serum-free Ham's F-12 medium and 1 ml is added to each well. Fifty μl of purified human IL 1 (100 Units/ml; Genzyme Corporation, Boston, Mass.) is then added to stimulate these cells to secrete neutral protease. To measure drug effects, the cells are treated with test compound 10 minutes prior to addition of IL-1. The standard screening dose is 10 μM. Twenty-four hours after IL-1 stimulation, supernatant fluids are collected and assayed for neutral protease activity.
The neutral protease activity of chondrocyte supernatant fluids is determined by their ability to degrade an insoluble protease substrate, azocoll (Sigma). Supernatants are treated for 10 minutes at room temperature with 350 μM p-aminophenylmurcuric acetate to activate the latent enzyme. Three hundred μl of supernatant is then mixed with 500μl of a 20 mg/ml suspension of azocoll and incubated at 37° C. for 18-24 hours with gentle rocking. The mixtures are centrifuged and the amount of substrate hydrolyzed is determined by measuring the absorbance of the supernatant at 520 nm.
Drug effects are calculated as the % change in enzyme activity (absorbance)by supernatants from drug-treated chondrocytes relative to enzyme activity of supernatants from vehicle-treated chondrocytes as follows: [formula]

[3] = test system: rat limb bones (IL-1 induced bone resorption); experiment: Bone resorption assay (45Ca release from rat limb bones), IL-1 induced; format: cell-based, rat (Sprague-Dawley CD); conditions: 48 h; for IC50: Rattus norvegicus, read-out: Inhibition of Bone Resorption, IL-1 Induced (IC50)
Procedure: as §1, §2, §3

SMILES	IC50 [1]	IC50 [3]	Inhibition of Bone Resorption, PTH-Induced (activity in words) [1]	inhibition at 10 µM [2]	Inhibition of Bone Resorption, IL-1 Induced (activity in words) [3]	inhibition at 1 µM ([2]; dose 1 μM)
CS(=O)(=O)c1ccc(N2CCc3[nH]c4c(cnc5cc(Cl)ccc54)c3C2)cc1 [Example 1, 3-Chloro-8,9,10,11-tetrahydro-8-[4-(methylsulfonyl)phenyl]-7H-pyrido[3',4':4,5]pyrrolo[3,2-c]quinoline]	0.633 µg/mL (≈ 1.54 µM)	6.84 µg/mL (≈ 16.6 µM)	Active	40%	Active	–
O=C(c1ccccc1)N1CCc2[nH]c3c(cnc4cc(Cl)ccc43)c2C1 [Example 6, 8-Benzoyl-3-Chloro-8,9,10,11-tetrahydro-7H-pyrido[3',4':4,5]pyrrolo[3,2-c]quinoline]	–	–	Active at 10 μg/ml	57%	Active at 5 μg/ml	–

Further lines, with some results ahead:

IC50 [1]	IC50 [3]	SMILES	Inhibition of Bone Resorption, PTH-Induced (activity in words) [1]	inhibition at 10 µM [2]	Inhibition of Bone Resorption, IL-1 Induced (activity in words) [3]	inhibition at 1 µM ([2]; dose 1 μM)
–	1.96 µg/mL (≈ 5.4 µM)	O=C(c1ccncc1)N1CCc2[nH]c3c(cnc4cc(Cl)ccc43)c2C1 [Example 8, 3-Chloro-8,9,10,11-tetrahydro-8-(4-pyridinylcarbonyl)-7H-pyrido[3',4':4,5]pyrrolo[3,2-c]quinoline]	Active at 10 μg/ml	35%	Active	–
0.274 µg/mL (≈ 0.725 µM)	0.76 µg/mL (≈ 2.01 µM)	O=C(Oc1ccccc1)N1CCc2[nH]c3c(cnc4cc(Cl)ccc43)c2C1 [Example 12, 3-Chloro-7,9,10,11-tetrahydro-8H-pyrido[3',4':4,5]pyrrolo-[3,2-c]quinoline-8-carboxylic Acid Phenyl Ester]	Active	< 20%	Active	–
0.144 µg/mL (≈ 0.357 µM)	0.018 µg/mL (≈ 0.0446 µM)	O=S(=O)(c1cccs1)N1CCc2[nH]c3c(cnc4cc(Cl)ccc43)c2C1 [Example 11, 3-Chloro-8,9,10,11-tetrahydro-8-(2-thienylsulfonyl)-7H-pyrido [3',4':4,5]pyrrolo[3,2-c]quinoline]	Active	–	Active	< 20%
